Legend:
HEPG2 = HEPG2 IC50; assay type: cell-based; conditions: Homo sapiens
[1] = molecular target: T1, stearoyl-CoA desaturase (SCD) (Mus musculus, UniProt P13516); assay: HTS microsomal assay of stearoyl-CoA desaturase inhibition using mouse liver microsomes; assay type: biochemical; conditions: % SCD enzyme activity remaining at 10 μM test compound
T1 construct: Reactions are started by adding 2 mg of microsomal protein; from tissue; host or cells: liver microsomes of male ICR mice on a high-carbohydrate, low fat diet
T1 sequence (P13516 1-355): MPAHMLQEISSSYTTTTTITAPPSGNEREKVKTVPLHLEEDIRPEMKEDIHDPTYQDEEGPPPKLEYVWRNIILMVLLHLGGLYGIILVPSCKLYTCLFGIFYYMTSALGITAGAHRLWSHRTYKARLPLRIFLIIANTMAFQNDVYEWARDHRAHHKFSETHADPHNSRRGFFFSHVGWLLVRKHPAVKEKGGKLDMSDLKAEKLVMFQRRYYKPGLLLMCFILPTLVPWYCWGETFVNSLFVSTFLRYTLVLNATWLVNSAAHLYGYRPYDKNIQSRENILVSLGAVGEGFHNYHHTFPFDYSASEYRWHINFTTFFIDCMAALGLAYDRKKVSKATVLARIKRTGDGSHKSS
Method: The absence of mitochondrial contamination is enzymatically assessed.
The compounds are analyzed with an HTS microsomal assay.

SCD = molecular target: T2, SCD (Mus musculus, UniProt P13516); assay: Mouse SCD IC50 determination for compounds active in the HTS assay; assay type: biochemical
T2 sequence (P13516 1-355): T1 sequence (P13516 1-355)
Method: The compounds are analyzed with an HTS microsomal assay. The activities are defined in terms of % SCD enzyme activity remaining at the selected concentration (e.g., 10 μM) of the test compounds.

CC(C)CCNC(=O)c1ccc(N2CCN(C(=O)c3cnccc3C(F)(F)F)CC2)nn1 [6-[4-(4-TRIFLUOROMETHYLPYRIDINE-3-CARBONYL)PIPERAZIN-1-YL]PYRIDAZINE-3-CARBOXYLIC ACID (3-METHYLBUTYL)AMIDE]
IC50 (HEPG2): 240 nM | Mouse microsome SCD activity % remaining @ 10 μM [1]: 8% | IC50 (SCD): 80 nM

O=C(NCCCc1ccc(F)cc1)Nc1ccc(N2CCN(C(=O)c3ccccc3C(F)(F)F)CC2)nn1 [1-[3-(4-Fluorophenyl)propyl]-3-{6-[4-(2-trifluoromethylbenzoyl)piperazin-1-yl]pyridazin-3-yl}urea]
IC50 (HEPG2): 350 nM | Mouse microsome SCD activity % remaining @ 10 μM [1]: 14% | IC50 (SCD): 1370 nM

CC(=CC(=O)N1CCN(c2ccc(C(=O)NCCC(C)C)nn2)CC1)C(F)(F)F [6-[4-(4,4,4-TRIFLUORO-3-METHYLBUT-2-ENOYL)PIPERAZIN-1-YL]PYRIDAZINE-3-CARBOXYLIC ACID (3-METHYLBUTYL)AMIDE]
IC50 (HEPG2): 540 nM | Mouse microsome SCD activity % remaining @ 10 μM [1]: 9% | IC50 (SCD): 340 nM

CC(C)CCNC(=O)c1ccc(N2CCN(C(=O)CC(C)C(F)(F)F)CC2)nn1 (centres unmarked) [6-[4-(4,4,4-TRIFLUORO-3-METHYLBUTYRYL)PIPERAZIN-1-YL]PYRIDAZINE-3-CARBOXYLIC ACID (3-METHYLBUTYL)AMIDE]
IC50 (HEPG2): 2530 nM | Mouse microsome SCD activity % remaining @ 10 μM [1]: 11%

O=C(Nc1ccc(F)cc1)Nc1ccc(N2CCN(C(=O)c3ccccc3C(F)(F)F)CC2)nn1 [1-(4-FLUOROPHENYL)-3-{6-[4-(2-TRIFLUOROMETHYLBENZOYL)PIPERAZIN-1-YL]-PYRIDAZIN-3-YL}UREA]
Mouse microsome SCD activity % remaining @ 10 μM [1]: 82%

CC(=O)Oc1ccccc1C(=O)N1CCN(c2ccc(C(=O)NCCC3CC3)nn2)CC1 [ACETIC ACID 2-{4-[6-(2-CYCLOPROPYLETHYLCARBAMOYL)PYRIDAZIN-3-YL]-PIPERAZINE-1-CARBONYL}PHENYL ESTER]
Mouse microsome SCD activity % remaining @ 10 μM [1]: 46%

CCOC(=O)CCNC(=O)Nc1ccc(N2CCN(C(=O)c3ccccc3C(F)(F)F)CC2)nn1 [3-(3-{6-[4-(2-TRIFLUOROMETHYLBENZOYL)PIPERAZIN-1-YL]-PYRIDAZIN-3-YL}-UREIDO)PROPIONIC ACID ETHYL ESTER]
IC50 (HEPG2): 5430 nM | Mouse microsome SCD activity % remaining @ 10 μM [1]: 18% | IC50 (SCD): 2770 nM

CCCCNC(=O)Nc1ccc(N2CCN(C(=O)c3ccccc3C(F)(F)F)CC2)nn1 [1-BUTYL-3-{6-[4-(2-TRIFLUOROMETHYLBENZOYL)PIPERAZIN-1-YL]PYRIDAZIN-3-YL}UREA]
IC50 (HEPG2): 210 nM | Mouse microsome SCD activity % remaining @ 10 μM [1]: 13% | IC50 (SCD): 70 nM

O=C(NCCC1CC1)c1ccc(N2CCN(C(=O)Cc3ccccc3C(F)(F)F)CC2)nn1 [6-{4-[2-(2-TRIFLUOROMETHYLPHENYL)ACETYL]PIPERAZIN-1-YL}PYRIDAZINE-3-CARBOXYLIC ACID (2-CYCLOPROPYLETHYL)AMIDE]
Mouse microsome SCD activity % remaining @ 10 μM [1]: 10% | IC50 (SCD): 590 nM

O=C(NCCC1CC1)c1ccc(N2CCN(Cc3cc(Cl)ccc3C(F)(F)F)CC2)nn1 [6-[4-(5-CHLORO-2-TRIFLUOROMETHYLBENZYL)PIPERAZIN-1-YL]PYRIDAZINE-3-CARBOXYLIC ACID (2-CYCLOPROPYLETHYL)AMIDE]
IC50 (HEPG2): 40 nM | Mouse microsome SCD activity % remaining @ 10 μM [1]: 7% | IC50 (SCD): 60 nM

O=C(NCCC1CC1)c1ccc(N2CCN(Cc3cc(F)ccc3C(F)(F)F)CC2)nn1 [6-[4-(5-FLUORO-2-TRIFLUOROMETHYLBENZYL)PIPERAZIN-1-YL]PYRIDAZINE-3-CARBOXYLIC ACID (2-CYCLOPROPYLETHYL)AMIDE]
IC50 (HEPG2): 20 nM | Mouse microsome SCD activity % remaining @ 10 μM [1]: 3% | IC50 (SCD): 20 nM

O=C(NCCC1CC1)c1ccc(N2CCN(Cc3ccc(F)cc3Cl)CC2)nn1 [6-[4-(2-CHLORO-4-FLUOROBENZYL)PIPERAZIN-1-YL]PYRIDAZINE-3-CARBOXYLIC ACID (2-CYCLOPROPYLETHYL)AMIDE]
IC50 (HEPG2): 70 nM | Mouse microsome SCD activity % remaining @ 10 μM [1]: 11% | IC50 (SCD): 130 nM

O=C(NCCC1CC1)c1ccc(N2CCN(C(=O)c3cc(C(F)(F)F)ccc3C(F)(F)F)CC2)nn1 [6-[4-(2,5-BIS-TRIFLUOROMETHYLBENZOYL)PIPERAZIN-1-YL]PYRIDAZINE-3-CARBOXYLIC ACID (2-CYCLOPROPYLETHYL)AMIDE]
IC50 (HEPG2): 70 nM | Mouse microsome SCD activity % remaining @ 10 μM [1]: 6% | IC50 (SCD): 150 nM

O=C(NCCC1CC1)c1ccc(N2CCN(C(=O)c3ccccn3)CC2)nn1 [6-[4-(PYRIDINE-2-CARBONYL)PIPERAZIN-1-YL]PYRIDAZINE-3-CARBOXYLIC ACID (2-CYCLOPROPYLETHYL)AMIDE]
Mouse microsome SCD activity % remaining @ 10 μM [1]: 94%

O=C(NCCC1CC1)c1ccc(N2CCN(C(=O)C3CCCCC3)CC2)nn1 [6-(4-CYCLOHEXANECARBONYLPIPERAZIN-1-YL)PYRIDAZINE-3-CARBOXYLIC ACID (2-CYCLOPROPYLETHYL)AMIDE]
Mouse microsome SCD activity % remaining @ 10 μM [1]: 22%

CC(C)(C)OC(=O)N1CCN(c2ccc(C(=O)NCCC3CC3)nn2)CC1 [4-[6-(2-CYCLOPROPYLETHYLCARBAMOYL)PYRIDAZIN-3-YL]PIPERAZINE-1-CARBOXYLIC ACID T-BUTYL ESTER]
Mouse microsome SCD activity % remaining @ 10 μM [1]: 37%

O=C(Nc1ccc(N2CCN(C(=O)c3ccccc3C(F)(F)F)CC2)nn1)Nc1ccccc1F [1-(2-FLUOROPHENYL)-3-{6-[4-(2-TRIFLUOROMETHYLBENZOYL)PIPERAZIN-1-YL]-PYRIDAZIN-3-YL}UREA]
Mouse microsome SCD activity % remaining @ 10 μM [1]: 73%

O=C(NCCC1CC1)c1ccc(N2CCN(C(=O)C3(O)CC3)CC2)nn1 [6-[4-(1-HYDROXYCYCLOPROPANECARBONYL)PIPERAZIN-1-YL]PYRIDAZINE-3-CARBOXYLIC ACID (2-CYCLOPROPYLETHYL)AMIDE]
Mouse microsome SCD activity % remaining @ 10 μM [1]: 73%

COC(=O)C(CC(C)C)NC(=O)c1ccc(N2CCN(C(=O)c3ccccc3C(F)(F)F)CC2)nn1 (centres unmarked) [4-METHYL-2-({6-[4-(2-TRIFLUOROMETHYLBENZOYL)PIPERAZIN-1-YL]-PYRIDAZINE-3-CARBONYL}AMINO)PENTANOIC ACID METHYL ESTER]
Mouse microsome SCD activity % remaining @ 10 μM [1]: 69%

CC(C)CCNC(=O)c1ccc(N2CCN(C(=O)c3nnn(Cc4ccccc4)c3C(F)(F)F)CC2)nn1 [6-[4-(1-BENZYL-5-TRIFLUOROMETHYL-1H-[1,2,3]TRIAZOLE-4-CARBONYL)-PIPERAZIN-1-YL]PYRIDAZINE-3-CARBOXYLIC ACID (3-METHYLBUTYL)AMIDE]
Mouse microsome SCD activity % remaining @ 10 μM [1]: 61%

CC(C)CCNC(=O)c1ccc(N2CCN(C(=O)N3CCN(C)CC3)CC2)nn1 [6-[4-(4-METHYLPIPERAZINE-1-CARBONYL)PIPERAZIN-1-YL]PYRIDAZINE-3-CARBOXYLIC ACID (3-METHYLBUTYL)AMIDE]
Mouse microsome SCD activity % remaining @ 10 μM [1]: 29%

CC(c1ccccc1C(F)(F)F)N1CCN(c2ccc(C(=O)NCCC3CC3)nn2)CC1.Cl (centres unmarked) [6-{4-[1-(2-TRIFLUOROMETHYLPHENYL)ETHYL]PIPERAZIN-1-YL}-PYRIDAZINE-3-CARBOXYLIC ACID (2-CYCLOPROPYLETHYL)AMIDE HYDROCHLORIDE]
Mouse microsome SCD activity % remaining @ 10 μM [1]: 24%

O=C(NCCc1ccccc1)c1ccc(N2CCN(C(=O)c3ccccc3C(F)(F)F)CC2)nn1 [6-[4-(2-Trifluoromethylbenzoyl)piperazin-1-yl]pyridazine-3-carboxylic acid phenethylamide]
Mouse microsome SCD activity % remaining @ 10 μM [1]: 0%

CC(C)CCNC(=O)c1ccc(N2CCN(C(=O)C(C)CC(F)(F)F)CC2)nn1 (centres unmarked) [6-[4-(4,4,4-TRIFLUORO-2-METHYLBUTYRYL)PIPERAZIN-1-YL]PYRIDAZINE-3-CARBOXYLIC ACID (3-METHYLBUTYL)AMIDE]
Mouse microsome SCD activity % remaining @ 10 μM [1]: 19%

CC(C)CCNC(=O)c1ccc(N2CCN(C(=O)c3c(C(F)(F)F)nnn3Cc3ccccc3)CC2)nn1 [6-[4-(3-BENZYL-5-TRIFLUOROMETHYL-3H-[1,2,3]TRIAZOLE-4-CARBONYL)PIPERAZIN-1-YL]PYRIDAZINE-3-CARBOXYLIC ACID (3-METHYLBUTYL)AMIDE]
Mouse microsome SCD activity % remaining @ 10 μM [1]: 61%

CC(C)CCNC(=O)c1ccc(N2CCN(C(=O)OC(C)(C)C)CC2)nn1 [4-[6-(3-METHYLBUTYLCARBAMOYL)PYRIDAZIN-3-YL]PIPERAZINE-1-CARBOXYLIC ACID T-BUTYL ESTER]
IC50 (HEPG2): 1450 nM | Mouse microsome SCD activity % remaining @ 10 μM [1]: 11%

O=C(NCCC1CC1)c1ccc(N2CCN(C(=O)c3cc(Cl)ccc3C(F)(F)F)CC2)nn1 [6-[4-(5-CHLORO-2-TRIFLUOROMETHYLBENZOYL)PIPERAZIN-1-YL]PYRIDAZINE-3-CARBOXYLIC ACID (2-CYCLOPROPYLETHYL)AMIDE]
Mouse microsome SCD activity % remaining @ 10 μM [1]: 12% | IC50 (SCD): 90 nM

CCC(CC)C(=O)N1CCN(c2ccc(C(=O)NCCC3CC3)nn2)CC1 [6-[4-(2-ETHYLBUTYRYL)PIPERAZIN-1-YL]PYRIDAZINE-3-CARBOXYLIC ACID (2-CYCLOPROPYLETHYL)AMIDE]
Mouse microsome SCD activity % remaining @ 10 μM [1]: 36%

CC(C)CCNC(=O)c1ccc(N2CCN(C(=O)CCC(F)(F)F)CC2)nn1 [6-[4-(4,4,4-TRIFLUOROBUTYRYL)PIPERAZIN-1-YL]PYRIDAZINE-3-CARBOXYLIC ACID (3-METHYLBUTYL)AMIDE]
Mouse microsome SCD activity % remaining @ 10 μM [1]: 42%

CC(C)CCNC(=O)c1ccc(N2CCN(C(=O)C3(C(F)(F)F)CC3)CC2)nn1 [6-[4-(1-TRIFLUOROMETHYLCYCLOPROPANECARBONYL)PIPERAZIN-1-YL]-PYRIDAZINE-3-CARBOXYLIC ACID (3-METHYLBUTYL)AMIDE]
Mouse microsome SCD activity % remaining @ 10 μM [1]: 26%

CC(NC(=O)Nc1ccc(N2CCN(C(=O)c3ccccc3C(F)(F)F)CC2)nn1)c1ccc(F)cc1 (centres unmarked) [1-[1-(4-Fluorophenyl)ethyl]-3-{6-[4-(2-trifluoromethylbenzoyl)piperazin-1-yl]pyridazin-3-yl}urea]
Mouse microsome SCD activity % remaining @ 10 μM [1]: 45%
